Reference: patent US8952003B2, “Sterol derivative” (Kyowa Hakko Kirin Co., Ltd, priority 2009, dated 2015)

Test system: Rat adult neural stem cell line ANSC-7 cells
Assay: Proliferation promoting activity on neural stem cells (Test Example 1)
Format: cell-based
Details: relative value, negative control (DMSO) = 100%, wells without cells = 0%, absorbance at 490 nm; for activity at 0.001 µM: at 1.0 nmol/L; for activity at 0.01 µM: at 10 nmol/L; for activity at 0.1 µM: at 100 nmol/L
Procedure: Rat adult neural stem cell line ANSC-7 cells prepared by the method described in the following Reference Test Example 1 were suspended in assay medium at a density of 1.6×10^5 cells/mL; inoculated at 0.1 mL in a 96 well plate (manufactured by Costar) of which surface was coated with polyornithine and laminin; and cultured overnight at 37° C. under an atmosphere of 5% CO2. Thereafter, 50 μL of the culture supernatant was removed, and 50 μL of a test compound which was serially diluted with the assay medium to 2 times of the final concentration or DMSO (negative control) was added to each well. For the serial dilution of a test compound, non-specific adsorption was minimized by using ProteoSave 96 U plates (manufactured by SUMILON), siliconized 1.5 mL tubes (manufactured by Assist) and Pitarack siliconized tips (manufactured by Nacalai). After the culturing for 48 hours, 50 μL of the culture supernatant was replaced by 50 μL of the assay medium containing 0.1% bovine fetal serum. Furthermore, after the culturing for 48 hours, Living Cell Count Reagent SF (manufactured by Nacalai Tesque) was added at the volume of 10 μL per well to the medium. After the culturing for 3 hours at 37° C. in the incubator which was set at 5% CO2, the resulting solution was stirred for one minute and then the absorbance at 490 nm (control wavelength 655 nm) was measured by using Microplate Spectrophotometer Emax (manufactured by Molecular Devices). By regarding the measured value of well to which the cells were not inoculated as 0%, and the measured value of negative control as 100%, relative values in the test compound addition group were calculated.
After putting a 7-week-old Sprague Dawley Rat to sleep by ether anesthesia and subsequent decapitation, the skull was cut open from the parietal region to extract the brain. Under a microscope, tissues including circumventricular region were isolated from the extracted brain by using ophthalmic scissors and tweezers. The tissues including circumventricular region were cut into fragments of about 1 mm^3 using ophthalmic scissors and scalpels and then subjected to 30 minutes of digestion reaction at 37° C. in 5 mL of Hanks' buffer (HBSS buffer, manufactured by Invitrogen) containing 2.5 U/mL of papain, 250 U/mL of DNase (all manufactured by Worthington, Freehold, N.J.) and 1 U/mL of a neutral protease (Dispase, manufactured by Boehringer-Mannheim Corp.). The mixture of cells and tissues obtained by the reaction was washed three times with DMEM (manufactured by Invitrogen) containing 10% fetal bovine serum (manufactured by Hyclone) and then dissolved in the DMEM containing 10% fetal bovine serum, followed by removing the undigested materials using a nylon mesh of […].
The resulting crude cells extract was cultured overnight on a culture dish of 10 cm, in an incubator of 37° C. using DMEM/F12 medium (manufactured by Invitrogen) containing 10% fetal bovine serum. On the next day, the medium was replaced with DMEM/F12 containing 1% of N-2 additives (manufactured by Invitrogen) and 20 ng/mL of FGF 2 (manufactured by Pepro Tech) and the culturing was started. Once in 3 days, half of the medium was replaced with new DMEM/F12 containing 1% of N-2 additives and 20 ng/mL of FGF 2 and the culturing was continued.
When a small colony consisting of small cells was formed, it was treated with 1% trypsin for 30 seconds to 1 minute, and the cells detached were harvested. The harvested cells were inoculated on a multiple well culture dish (manufactured by Fisher Scientific) which had been coated at room temperature overnight using 10 μg/mL of polyornithine (manufactured by Sigma) and at 37° C. overnight using 5 μg/mL of mouse EHS tumor-derived laminin (Becton Dickinson), and the culturing was continued.
By continuing the above-mentioned culturing, small cells having small protrusion and thickness were concentrated. The cells were used as adult neural stem cells in the above-mentioned test (Test Example 1).

Question: CC(C)CCC[C@H](C)[C@H]1CC[C@H]2C3=C(CC[C@]12C)[C@@]1(C)CCC(=NO)CC1C(=O)O3 (stereo partly drawn) [Compound 3, (S)-3-Hydroxyimino-7-oxa-8-cholesten-6-one] was tested. Which activity at 0.001 µM did it give?
Answer: The activity at 0.001 µM was at least 125%.

Question: How did the activity at 0.01 µM turn out when CC(C)C(C)CC[C@H](C)[C@H]1CC[C@H]2C3=C(CC[C@]12C)[C@@]1(C)CC[C@H](O)C[C@@H]1C(=O)O3 (stereo in doubt) [Compound 76, 7-Oxa-ergosta-8(9)-en-6-on-3-ol] was run?
Answer: The activity at 0.01 µM was at least 125%.

Question: With CC(C)CCC[C@@H](C)[C@H]1CC[C@H]2C3=C(CC[C@]12C)[C@@]1(C)C[C@@H](O)C(=O)C[C@@H]1C(=O)O3 [Compound 48, (2R,5S)-2-Hydroxy-7-oxa-8-cholesten-3,6-dione] as the molecule, how does the activity at 0.001 µM read?
Answer: Its activity at 0.001 µM is at least 125%.

Question: For CC(C)CCC[C@@H](C)[C@H]1CCC2=C3OC(=O)[C@H]4C[C@@H](O)CC[C@]4(C)[C@H]3CC[C@@]21C [Compound 99, (1R,5aS,7S,9aR,9bR,11aR)-7-Hydroxy-9a,11a-dimethyl-1-[(R)-6-methylheptan-2-yl]-2,3,3,5a,6,7,8,9,9a,9b,10,11,11a-dodecahydrobenzo[c]cyclopenta[h]chromen-5(1H)-one], which activity at 0.001 µM is on record?
Answer: The activity at 0.001 µM was at least 125%.

Question: How did the activity at 0.001 µM turn out when CC(C)COC[C@@H](C)[C@H]1CC[C@H]2C3=C(CC[C@]12C)[C@@]1(C)CC[C@H](O)C[C@@H]1C(=O)O3 [Compound 81, (1R,3aR,5aS,7S,9aS,11aR)-7-Hydroxy-1-[(S)-1-isobutyloxypropan-2-yl]-9a,11a-dimethyl-1,2,3,3a,5a,6,7,8,9,9a,11,11a-dodecahydrobenzo[c]cyclopenta[h]chromen-5(10H)-one] was run?
Answer: Its activity at 0.001 µM is at least 125%.

Question: How did the activity at 0.01 µM turn out when COCO[C@H]1CC[C@]2(C)C3=C(OC(=O)[C@H]2C1)[C@@H]1CC[C@H]([C@H](C)CCCCCCO)[C@@]1(C)CC3 [Compound 74, (1R,3aR,5aS,7S,9aS,11aR)-1-[(R)-8-Hydroxyoctan-2-yl]-7-methoxymethoxy-9a,11a-dimethyl-1,2,3,3a,5a,6,7,8,9,9a,11,11a-dodecahydrobenzo[c]cyclopenta[h]chromen-5(10H)-one] was run?
Answer: Its activity at 0.01 µM is at least 125%.

Question: CC(C)CCC[C@@H](C)[C@H]1CC[C@H]2[C@H]3OC(=O)[C@H]4CC(=O)CC[C@]4(C)[C@H]3CC[C@]12C [Compound 93, (1R,3aR,3bR,5aS,9aR,9bR,11aR)-9a,11a-Dimethyl-1-[(R)-6-methylheptan-2-yl]dodecahydrobenzo[c]cyclopenta[h]chromen-5,7(3bH,8H)-dione] was tested. Which activity at 0.1 µM did it give?
Answer: Its activity at 0.1 µM is at least 125%.

Question: CC(C)CCC[C@@H](C)[C@H]1CC[C@H]2C3=C(CC[C@]12C)[C@@]1(C)CC[C@H](OCCO)C[C@@H]1C(=O)O3 [Compound 31, (3S,5S)-3-(2-Hydroxy)ethoxy-7-oxa-8-cholesten-6-one] was tested. Which activity at 0.001 µM did it give?
Answer: Its activity at 0.001 µM is at least 125%.

Question: For C=CC[C@]12C[C@@H](O)CC[C@]1(C)C1=C(OC2=O)[C@@H]2CC[C@H]([C@H](C)CCCC(C)C)[C@@]2(C)CC1 [Compound 30, (3S,5S)-3-hydroxy-5-allyl-7-oxa-8-cholesten-6-one], which activity at 0.1 µM is on record?
Answer: Its activity at 0.1 µM is at least 125%.

Question: C=CCOC[C@@H](C)[C@H]1CC[C@H]2C3=C(CC[C@]12C)[C@@]1(C)CC[C@H](OCOC)C[C@@H]1C(=O)O3 [Compound 66, (1R,3aR,5aS,7S,9aS,11aR)-1-[(S)-1-Allyloxypropan-2-yl]-7-methoxymethoxy-9a,11a-dimethyl-1,2,3,3a,5a,6,7,8,9,9a,11,11a-dodecahydrobenzo[c]cyclopenta[h]chromen-5(10H)-one] was tested. Which activity at 0.001 µM did it give?
Answer: Its activity at 0.001 µM is at least 125%.

Question: How did the activity at 0.01 µM turn out when CC(C)CCC[C@@H](C)[C@H]1CC[C@@H]2[C@]1(C)CC[C@@]13O[C@@]21OC(=O)[C@H]1CC(=O)CC[C@@]13C [Compound 94, (5S,8S,9S)-7-Oxa-8,9-epoxy-3,6-cholestadione] was run?
Answer: The activity at 0.01 µM was at least 125%.

Question: For CC(C)CNC[C@@H](C)[C@H]1CC[C@H]2C3=C(CC[C@]12C)[C@@]1(C)CC[C@H](O)C[C@@H]1C(=O)O3 [Compound 83, (1R,3aR,5aS,7S,9aS,11aR)-7-Hydroxy-1-[(S)-1-isobutylaminopropan-2-yl]-9a,11a-dimethyl-1,2,3,3a,5a,6,7,8,9,9a,11,11a-dodecahydrobenzo[c]cyclopenta[h]chromen-5(10H)-one], which activity at 0.001 µM is on record?
Answer: The activity at 0.001 µM was at least 125%.

Question: Which activity at 0.1 µM does the source give for CC(C)CCC[C@@H](C)[C@H]1CC[C@H]2C3=C(CC[C@]12C)[C@@]1(C)CC[C@H](OCc2ccccc2)C[C@@H]1C(=O)O3 [Compound 47, (3S,5S)-3-Benzyloxy-7-oxa-8-cholesten-6-one] here?
Answer: The activity at 0.1 µM was at least 125%.

Question: Which activity at 0.01 µM does the source give for CC(C)CCC[C@@H](C)[C@H]1CC[C@H]2C3=C(CC[C@]12C)[C@@]1(C)CCNC(=O)C[C@@H]1C(=O)O3 [Compound 34, (1R,3aR,5aS,10aS,12aR)-10a,12a-Dimethyl-1-[(R)-6-methylheptan-2-yl]-1,2,3,3a,5a,6,9,10,10a,11,12,12a-dodecahydro-8-azacyclohepta[c]cyclopenta[h]chromen-5,7-dione] here?
Answer: The activity at 0.01 µM was at least 125%.

Question: Which activity at 0.01 µM does the source give for CC(CCC[C@H](C)[C@H]1CC[C@H]2C3=C(CC[C@]12C)[C@@]1(C)CC[C@H](O)C[C@@H]1C(=O)O3)C(=O)O (some centres unmarked) [Compound 80, 7-Oxa-3-hydroxy-cholest-8(9)-en-6-on-26-acid] here?
Answer: Its activity at 0.01 µM is at least 125%.

Question: Which activity at 0.1 µM does the source give for CC(C)C(=O)CC[C@H](C)[C@H]1CC[C@H]2C3=C(CC[C@]12C)[C@@]1(C)CC[C@H](O)C[C@@H]1C(=O)O3 (stereo in doubt) [Compound 78, 7-Oxa-cholest-8(9)-en-6,24-dion-3-ol] here?
Answer: Its activity at 0.1 µM is at least 125%.

Question: For CC(CO)CCC[C@H](C)[C@H]1CCC2=C3OC(=O)[C@H]4C[C@@H](O)CC[C@]4(C)[C@H]3CC[C@@]21C (stereo in doubt) [Compound 90, 7-oxa-cholest-8(14)-en-6-on-3,26-diol], which activity at 0.01 µM is on record?
Answer: Its activity at 0.01 µM is at least 125%.

Question: How did the activity at 0.001 µM turn out when CC(C)CCC[C@@H](C)[C@H]1CC[C@H]2C3=C(CC[C@]12C)[C@]1(C)[C@H](C[C@@H](O)[C@H](O)[C@@H]1O)C(=O)O3 [Compound 32, (1R,2S,3R,5S)-1,2,3-trihydroxy-7-oxa-8-cholesten-6-one] was run?
Answer: Its activity at 0.001 µM is at least 125%.

Question: With CC(C)CCC[C@@H](C)[C@H]1CC[C@H]2C3=C(CC[C@]12C)[C@]1(C)[C@H](CC=C[C@@H]1O)C(=O)O3 [Compound 21, (1S,5S)-1-Hydroxy-7-oxa-2,8-cholestadien-6-one] as the molecule, how does the activity at 0.1 µM read?
Answer: The activity at 0.1 µM was at least 125%.

Question: With CC(CO)CCC[C@H](C)[C@H]1CC[C@H]2C3=C(CC[C@]12C)[C@@]1(C)CC[C@H](O)C[C@@H]1C(=O)O3 (some centres unmarked) [Compound 79, 7-Oxa-cholest-8(9)-en-6-on-3,26-diol] as the molecule, how does the activity at 0.001 µM read?
Answer: The activity at 0.001 µM was at least 125%.

Question: With CC(C)CCC[C@@H](C)[C@H]1CC[C@H]2C3=C(CC[C@]12C)[C@@]1(C)C[C@@H](O)[C@H](O)C[C@@H]1C(=O)O3 [Compound 53, (2R,3R,5S)-2,3-Dihydroxy-7-oxa-8-cholesten-6-one] as the molecule, how does the activity at 0.001 µM read?
Answer: Its activity at 0.001 µM is at least 125%.

Question: How did the activity at 0.001 µM turn out when COCO[C@H]1CC[C@]2(C)C3=C(OC(=O)[C@H]2C1)[C@@H]1CC[C@H]([C@H](C)CNCC(C)C)[C@@]1(C)CC3 [Compound 69, (1R,3aR,5aS,7S,9aS,11aR)-1-[(S)-1-Isobutylaminopropan-2-yl]-7-methoxymethoxy-9a,11a-dimethyl-1,2,3,3a,5a,6,7,8,9,9a,11,11a-dodecahydrobenzo[c]cyclopenta[h]chromen-5(10H)-one] was run?
Answer: Its activity at 0.001 µM is at least 125%.

Question: With COCO[C@H]1CC[C@]2(C)C3=C(OC(=O)[C@H]2C1)[C@@H]1CC[C@H]([C@H](C)CN2CCOCC2)[C@@]1(C)CC3 [Compound 72, (1R,3aR,5aS,7S,9aS,11aR)-7-Methoxymethoxy-9a,11a-dimethyl-1[(S)-1-morpholinopropan-2-yl]-1,2,3,3a,5a,6,7,8,9,9a,11,11a-dodecahydrobenzo[c]cyclopenta[h]chromen-5(10H)-one] as the molecule, how does the activity at 0.1 µM read?
Answer: Its activity at 0.1 µM is at least 125%.
